Experimental data published in ChEMBL document CHEMBL1148689, “Isolation of new phenylacetylingol derivatives that reactivate HIV-1 latency and a novel spirotriterpenoid from Euphorbia officinarum latex” (2007).
Activity calls are given as the source filed them. The rule behind the calls is not given here.

What was measured:
[1] = test system: Jurkat; experiment: Induction of HIV-LTR transactivation assessed by GFP expression in Jurkat cells at 25 uM after 36 hrs by flow cytometry; format: cell-based; conditions: Human immunodeficiency virus
[2] = test system: Jurkat; experiment: Cell cycle arrest in human Jurkat cells assessed as accumulation at sub-G0 phase at 10 uM after 36 hrs by flow cytometry; format: functional
[3] = test system: Jurkat; experiment: Induction of HIV-LTR transactivation assessed by GFP expression in Jurkat cells at 50 uM after 36 hrs by flow cytometry; format: cell-based; conditions: Human immunodeficiency virus
[4] = test system: Jurkat; experiment: Cell cycle arrest in human Jurkat cells assessed as accumulation at G0/G1 phase at 50 uM after 36 hrs by flow cytometry; format: functional
[5] = test system: Jurkat; experiment: Cell cycle arrest in human Jurkat cells assessed as accumulation at G0/G1 phase at 10 uM after 36 hrs by flow cytometry; format: functional
[6] = test system: Jurkat; experiment: Induction of HIV-LTR transactivation assessed by GFP expression in Jurkat cells at 10 uM after 36 hrs by flow cytometry; format: cell-based; conditions: Human immunodeficiency virus
[7] = test system: Jurkat; experiment: Cell cycle arrest in human Jurkat cells assessed as accumulation at G2/M phase at 50 uM after 36 hrs by flow cytometry; format: functional
[8] = test system: Jurkat; experiment: Cell cycle arrest in human Jurkat cells assessed as accumulation at S phase at 50 uM after 36 hrs by flow cytometry; format: functional
[9] = test system: Jurkat; experiment: Cell cycle arrest in human Jurkat cells assessed as accumulation at G2/M phase at 10 uM after 36 hrs by flow cytometry; format: functional
[10] = test system: Jurkat; experiment: Cell cycle arrest in human Jurkat cells assessed as accumulation at sub-G0 phase at 50 uM after 36 hrs by flow cytometry; format: functional
[11] = test system: Jurkat; experiment: Cell cycle arrest in human Jurkat cells assessed as accumulation at S phase at 10 uM after 36 hrs by flow cytometry; format: functional
[12] = test system: Jurkat; experiment: Induction of HIV-LTR transactivation assessed by GFP expression in Jurkat cells at 10 ng/ml after 36 hrs by flow cytometry; format: cell-based; conditions: Human immunodeficiency virus

## CO[C@H]1C(OC(C)=O)/C(C)=C/[C@@]23O[C@@]2(C[C@H](C)[C@@H]3OC(=O)Cc2ccccc2)C(=O)[C@H](C)[C@H](OC(C)=O)[C@@H]2[C@H]1C2(C)C (some centres undefined)
[1]
  Activity: 66%
[2]
  Activity: 2.34%
[3]
  Activity: 83.5%
[4]
  Activity: 81.4%
[5]
  Activity: 77.8%
[6]
  Activity: 25.5%
[7]
  Activity: 9.22%
[8]
  Activity: 5.31%
[9]
  Activity: 10.8%
[10]
  Activity: 3.97%
[11]
  Activity: 9.01%

## CCCCCCCCCCCCCC(=O)O[C@@H]1[C@@H](C)[C@@]2(O)[C@@H](C=C(CO)C[C@]3(O)C(=O)C(C)=C[C@@H]23)[C@@H]2C(C)(C)[C@]12OC(C)=O
[12]
  Activity: 97.3%

## CC(=O)OC1/C(C)=C/[C@@]23O[C@@]2(C[C@H](C)[C@@H]3OC(=O)Cc2ccccc2)C(=O)[C@H](C)[C@H](OC(C)=O)[C@@H]2[C@H]([C@H]1OC(C)=O)C2(C)C (some centres undefined)
[1]
  Activity: inactive
[2]
  Activity: 1.52%
[3]
  Activity: inactive
[4]
  Activity: 66.2%
[5]
  Activity: 61.5%
[6]
  Activity: inactive
[7]
  Activity: 13.4%
[8]
  Activity: 18.7%
[9]
  Activity: 15.9%
[10]
  Activity: 1.38%
[11]
  Activity: 20.9%

## COc1ccc(CC(=O)O[C@H]2[C@@H](C)C[C@@]34O[C@@]23/C=C(\C)C(OC(C)=O)[C@H](OC(C)=O)[C@H]2[C@@H]([C@@H](OC(C)=O)[C@@H](C)C4=O)C2(C)C)cc1 (some centres undefined)
[1]
  Activity: inactive
[2]
  Activity: 1.59%
[3]
  Activity: inactive
[4]
  Activity: 61.5%
[5]
  Activity: 60.9%
[6]
  Activity: inactive
[7]
  Activity: 14.7%
[8]
  Activity: 21.7%
[9]
  Activity: 16.4%
[10]
  Activity: 1.95%
[11]
  Activity: 21%
